Molecules are shown by their SMILES. Like-named read-outs stand apart in the source and are kept apart here.

This note sets out measurements from patent publication US9790233B2, “Compositions and methods of modulating 15-PGDH activity” (CASE WESTERN RESERVE UNIVERSITY, priority 2012, dated 2017).

Common to all, as to format: cell-based
Assay [1] relates to 15-PGDH luciferase fusion construct in V9m reporter cell line. Nature of the assay: 15-PGDH-luciferase fusion gene reporter induction, V9m cells.
Assay [2] has as its system 15-PGDH luciferase fusion construct in LS174T reporter cell line. Nature of the assay: 15-PGDH-luciferase fusion gene reporter induction, LS174T cells. Particulars: Homo sapiens.
Assay [3] concerns 15-PGDH luciferase fusion construct in Vaco503 reporter cell line. Nature of the assay: 15-PGDH-luciferase fusion gene reporter induction, V503 cells.
The mark [4] stands for this setting: read-out: V9M-SC3 Reporter activity ([…]) (%), V9m reporter cells, […] compound, % induction of luciferase activity over basal level, read-out: V9M-SC3 Reporter activity (2.5 μM) (%).
The mark [5] stands for this setting: read-out: V9M-SC3 Reporter activity ([…]), %, V9m reporter cells, […] compound, % induction of luciferase activity over basal level, read-out: V9M-SC3 Reporter activity (7.5 μM), %.
Setting [6] is: read-out: Ls174T-SC1 reporter activity, % ([…]), LS174T reporter cells, […] compound, % induction of luciferase activity over basal level, read-out: Ls174T-SC1 reporter activity, % (2.5 μM).
Setting [7] is: read-out: Ls174T-SC1 reporter activity, % ([…]), LS174T reporter cells, […] compound, % induction of luciferase activity over basal level, read-out: Ls174T-SC1 reporter activity, % (7.5 μM).
[8] abbreviates: read-out: V503-3H9-7 reporter activity, % ([…]), V503 reporter cells, […] compound, % induction of luciferase activity over basal level, read-out: V503-3H9-7 reporter activity, % (2.5 μM).
Setting [9] is: read-out: V503-3H9-7 reporter activity, % ([…]), V503 reporter cells, […] compound, % induction of luciferase activity over basal level, read-out: V503-3H9-7 reporter activity, % (7.5 μM).
[10] abbreviates: read-out: V9M reporter activity ([…]), […], % increased luciferase activity over basal level, 100 = doubling, read-out: V9M reporter activity (2.5 uM).
The mark [11] stands for this setting: read-out: V9M reporter activity ([…]), […], % increased luciferase activity over basal level, 100 = doubling, read-out: V9M reporter activity (7.5 uM).
Where [12] appears, read: read-out: LS174T reporter activity ([…]), […], % increased luciferase activity over basal level, read-out: LS174T reporter activity (2.5 uM).
[13] abbreviates: read-out: LS174T reporter activity ([…]), […], % increased luciferase activity over basal level, read-out: LS174T reporter activity (7.5 uM).
The mark [14] stands for this setting: read-out: V503 reporter activity ([…]), […], % increased luciferase activity over basal level, read-out: V503 reporter activity (2.5 uM).
Where [15] appears, read: read-out: V503 reporter activity ([…]), […], % increased luciferase activity over basal level, read-out: V503 reporter activity (7.5 uM).

`COc1ccc(OC)c(N(CC(=O)Nc2cnccn2)S(=O)(=O)c2ccccc2)c1` [SW203681]: the activation at […] in assay [1] (setting [4]) came out at 18%; in assay [1] (setting [5]), 122%; in assay [2] (setting [6]), 121%; in assay [2] (setting [7]), 152%; in assay [3] (setting [8]), 90.4%; in assay [3] (setting [9]), 72.4%.
As to `CNC(=O)CN(c1cc(OC)ccc1OC)S(=O)(=O)c1ccccc1` [SW203682], the activation at […] in assay [1] (setting [4]) was 15.3%; in assay [1] (setting [5]) it was 22.4%; in assay [2] (setting [6]), 187%; in assay [2] (setting [7]), 13.8%; in assay [3] (setting [8]) it was -32.2%; in assay [3] (setting [9]), 79.2%.
For `COc1ccc(OC)c(N(CC(=O)Nc2cccnc2)S(=O)(=O)c2cccc(C)c2)c1` [SW203684], the activation at […] turned out to be 50.7% in assay [1] (setting [4]); 74.9% in assay [1] (setting [5]); 170% in assay [2] (setting [6]); 119% in assay [2] (setting [7]); 81.2% in assay [3] (setting [8]); 52.5% in assay [3] (setting [9]).
With `COc1ccc(OC)c(N(CC(=O)N(C)c2cccnc2)S(=O)(=O)c2ccccc2)c1` [SW203686], the activation at […] in assay [1] (setting [4]) was 15.1%; in assay [1] (setting [5]), 30.3%; in assay [2] (setting [6]) it was 116%; in assay [2] (setting [7]), 28.5%; in assay [3] (setting [8]), -11%; in assay [3] (setting [9]), 65.6%.
Turning to `COc1ccc(OC)c(N(CC(=O)Nc2ccccc2)S(=O)(=O)c2ccccc2)c1` [SW203687], the activation at […] was 28.2% in assay [1] (setting [4]); 47.5% in assay [1] (setting [5]); 1.75% in assay [2] (setting [6]); 56% in assay [2] (setting [7]); 45.7% in assay [3] (setting [8]); -41.6% in assay [3] (setting [9]).
On to `COc1ccc(OC)c(CN(CC(=O)Nc2cccnc2)S(=O)(=O)c2ccccc2)c1` [SW203688], for which the activation at […] was 12.1% in assay [1] (setting [4]); 6.04% in assay [1] (setting [5]); 12.6% in assay [2] (setting [6]); 14.8% in assay [2] (setting [7]); -28.1% in assay [3] (setting [8]); -99.5% in assay [3] (setting [9]).
As for `CCCCC(=O)c1sc2nc(-c3cccs3)cc(-c3ccccc3)c2c1N` [SW206976, 1-(3-amino-4-phenyl-6-(thiophen-2-yl)thieno[2,3-b]pyridin-2-yl)pentan-1-one], the activation at […] in assay [1] (setting [10]) turned out to be 11.8%; in assay [1] (setting [11]), 17.5%; in assay [2] (setting [12]), 42.4%; in assay [2] (setting [13]), 20.6%; in assay [3] (setting [14]), 16.8%; in assay [3] (setting [15]), 49.5%.
With `CCCNC(=O)c1sc2nc(-c3cccs3)cc(-c3ccccc3)c2c1N` [SW206977, 3-amino-4-phenyl-N-propyl-6-(thiophen-2-yl)thieno[2,3-b]pyridine-2-carboxamide], the activation at […] in assay [1] (setting [10]) was found to be 3.5%; in assay [1] (setting [11]), 0.45%; in assay [2] (setting [12]), 34.9%; in assay [2] (setting [13]) it was 29.4%; in assay [3] (setting [14]), 33%; in assay [3] (setting [15]) it was 37.6%.
`CCOC(=O)c1sc2nc(-c3cccs3)cc(-c3ccccc3)c2c1N` [SW206978, Ethyl 3-amino-4-phenyl-6-(thiophen-2-yl)thieno[2,3-b]pyridine-2-carboxylate]: the activation at […] in assay [1] (setting [10]) worked out at 7.51%; in assay [1] (setting [11]), 8.02%; in assay [2] (setting [12]) it was 31.4%; in assay [2] (setting [13]), 26.2%; in assay [3] (setting [14]) it was 38.8%; in assay [3] (setting [15]) it was 35.8%.
Consider `COc1ccc(OC)c(N(CC(=O)N2CCCCCC2)S(=O)(=O)c2ccccc2)c1` [SW208000], for which the activation at […] in assay [1] (setting [4]) came to 33.5%; in assay [1] (setting [5]), 36.6%; in assay [2] (setting [6]), 42%; in assay [2] (setting [7]), 70.5%; in assay [3] (setting [8]) it was 122%; in assay [3] (setting [9]), 138%.
In the case of `COc1ccc(OC)c(N(CC(=O)N2CCCC2)S(=O)(=O)c2ccccc2)c1` [SW208001], the activation at […] in assay [1] (setting [4]) is 19.6%; in assay [1] (setting [5]) it was 23.3%; in assay [2] (setting [6]), -0.61%; in assay [2] (setting [7]) it was 1.87%; in assay [3] (setting [8]) it was -4.07%; in assay [3] (setting [9]) it was 6.68%.
Regarding `COc1ccc(OC)c(N(CC(=O)N2CCCC2=O)S(=O)(=O)c2ccccc2)c1` [SW208002], the activation at […] is -12.4% in assay [1] (setting [4]); -21.8% in assay [1] (setting [5]); -14.5% in assay [2] (setting [6]); -14.6% in assay [2] (setting [7]); -15.7% in assay [3] (setting [8]); -16.5% in assay [3] (setting [9]).
`COc1ccc(OC)c(N(CC(=O)N2CCc3ccccc32)S(=O)(=O)c2ccccc2)c1` [SW208003]: the activation at […] is 13.3% in assay [1] (setting [4]); -11.5% in assay [1] (setting [5]); 37% in assay [2] (setting [6]); 45.6% in assay [2] (setting [7]); 117% in assay [3] (setting [8]); 75.9% in assay [3] (setting [9]).
Turning to `COc1ccc(OC)c(N(CC(=O)Nc2ccncc2F)S(=O)(=O)c2ccccc2)c1` [SW208004], the activation at […] in assay [1] (setting [4]) was determined as 43.7%; in assay [1] (setting [5]) it was 76.1%; in assay [2] (setting [6]), 62.2%; in assay [2] (setting [7]), 118%; in assay [3] (setting [8]), 147%; in assay [3] (setting [9]), 177%.
As to `COc1ccc(OC)c(N(CC(=O)Nc2ccnc(F)c2)S(=O)(=O)c2ccccc2)c1` [SW208005], the activation at […] in assay [1] (setting [4]) was found to be 42.4%; in assay [1] (setting [5]), 19.8%; in assay [2] (setting [6]) it was 63.9%; in assay [2] (setting [7]) it was 53.9%; in assay [3] (setting [8]) it was 103%; in assay [3] (setting [9]), 61.2%.
On to `COc1ccc(OC)c(N(CC(=O)N2CCCc3ccccc32)S(=O)(=O)c2ccccc2)c1` [SW208006], for which the activation at […] in assay [1] (setting [4]) amounted to 34.9%; in assay [1] (setting [5]) it was 0.15%; in assay [2] (setting [6]) it was 38.2%; in assay [2] (setting [7]), 42.2%; in assay [3] (setting [8]) it was 89.7%; in assay [3] (setting [9]), 43.9%.
On to `COc1ccc(S(=O)(=O)N(CC(=O)Nc2cccnc2)c2cc(C(F)(F)F)ccc2C(F)(F)F)cc1` [SW208008], for which the activation at […] in assay [1] (setting [4]) was -5.96%; in assay [1] (setting [5]) it was -0.92%; in assay [2] (setting [6]), -2.16%; in assay [2] (setting [7]), 10%; in assay [3] (setting [8]), 31.9%; in assay [3] (setting [9]), 39.6%.
As for `CCCC[S+]([O-])c1sc2ncccc2c1N` (stereo not drawn) [SW208064, 2-(butylsulfinyl)thieno[2,3-b]pyridin-3-amine], the activation at […] in assay [1] (setting [10]) is 82.6%; in assay [1] (setting [11]) it was 50.1%; in assay [2] (setting [12]), 126%; in assay [2] (setting [13]) it was 96.2%; in assay [3] (setting [14]), 126%; in assay [3] (setting [15]) it was 96.2%.
In the case of `CCCC[S+]([O-])c1sc2nc(-c3ccccc3)nc(-c3ccccc3)c2c1N` (stereo not drawn) [SW208065, 6-(butylsulfinyl)-2,4-diphenylthieno[2,3-d]pyrimidin-5-amine], the activation at […] in assay [1] (setting [10]) came to 120%; in assay [1] (setting [11]), 119%; in assay [2] (setting [12]), 73.5%; in assay [2] (setting [13]), 87.7%; in assay [3] (setting [14]), 73.5%; in assay [3] (setting [15]), 87.7%.
`CCCCSc1ncccc1N` [SW208068, 2-(butylthio)pyridin-3-amine]: the activation at […] in assay [1] (setting [10]) was found to be 12.9%; in assay [1] (setting [11]) it was 12.3%; in assay [2] (setting [12]) it was 14.9%; in assay [2] (setting [13]) it was 15%; in assay [3] (setting [14]), 14.9%; in assay [3] (setting [15]) it was 15%.
On to `CCCC[S+]([O-])c1ncccc1N` (stereo not drawn) [SW208070, 2-(butylsulfinyl)pyridin-3-amine], for which the activation at […] in assay [1] (setting [10]) worked out at 22.6%; in assay [1] (setting [11]) it was 12.1%; in assay [2] (setting [12]), 19.7%; in assay [2] (setting [13]), 15.4%; in assay [3] (setting [14]) it was 19.7%; in assay [3] (setting [15]), 15.4%.
With `CCCCS(=O)(=O)c1sc2nc(-c3cccs3)cc(-c3ccccc3)c2c1N` [SW208078, 2-(butylsulfonyl)-4-phenyl-6-(thiophen-2-yl)thieno[2,3-b]pyridin-3-amine], the activation at […] is 36.2% in assay [1] (setting [10]); 34.9% in assay [1] (setting [11]); 72.7% in assay [2] (setting [12]); 40% in assay [2] (setting [13]); 87.7% in assay [3] (setting [14]); 83.8% in assay [3] (setting [15]).
